# Laboratory results published in publication PMC5673308, “Two single-point mutations shift the ligand selectivity of a pheromone receptor between two closely related moth species” (eLife, 2017).
# Where a chain is given by its changes, count along the chain named.
# Key:
# Experiment in all cases: two-electrode voltage clamp, Xenopus oocytes
# Type in all cases: cell-based
# Details in all cases: holding potential −80 mV, pH 7.5, agonist
# HassOr16/HassOrco = biological target: T1, HassOr16/HassOrco (Helicoverpa assulta, UniProt C6K7C1)
# T1 construct: full-length Or16, pCS2+ vector, cRNA co-injected with Orco in Xenopus laevis oocytes; with Odorant receptor coreceptor
# T1 sequence (C6K7C1 1-422): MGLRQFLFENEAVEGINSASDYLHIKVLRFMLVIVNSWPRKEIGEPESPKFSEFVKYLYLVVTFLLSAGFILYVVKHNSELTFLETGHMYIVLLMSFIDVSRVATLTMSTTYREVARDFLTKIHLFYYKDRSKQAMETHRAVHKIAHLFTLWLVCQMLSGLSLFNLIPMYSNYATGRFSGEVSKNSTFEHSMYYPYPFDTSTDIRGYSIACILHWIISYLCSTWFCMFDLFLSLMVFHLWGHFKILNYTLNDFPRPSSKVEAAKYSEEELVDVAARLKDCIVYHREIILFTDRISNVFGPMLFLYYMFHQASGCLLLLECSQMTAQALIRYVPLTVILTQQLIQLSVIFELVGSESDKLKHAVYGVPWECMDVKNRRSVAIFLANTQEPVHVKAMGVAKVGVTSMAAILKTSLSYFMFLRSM
# T1 sequence (A7UGE1 1-473 partner): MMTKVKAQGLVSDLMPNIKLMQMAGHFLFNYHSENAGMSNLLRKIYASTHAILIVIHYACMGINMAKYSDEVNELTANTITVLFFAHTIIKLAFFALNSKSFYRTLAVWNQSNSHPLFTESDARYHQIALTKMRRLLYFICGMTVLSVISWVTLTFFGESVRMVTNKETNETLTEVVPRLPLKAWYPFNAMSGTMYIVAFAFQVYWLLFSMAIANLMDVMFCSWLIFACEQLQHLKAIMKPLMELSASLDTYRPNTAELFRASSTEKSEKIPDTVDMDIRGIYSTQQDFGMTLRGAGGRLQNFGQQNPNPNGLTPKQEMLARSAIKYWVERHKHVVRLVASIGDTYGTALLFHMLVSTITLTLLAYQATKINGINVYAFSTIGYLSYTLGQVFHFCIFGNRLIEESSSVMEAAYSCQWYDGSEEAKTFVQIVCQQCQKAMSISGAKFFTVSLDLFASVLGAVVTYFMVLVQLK
# HarmOr14b/HarmOrco = biological target: T2, HarmOr14b/HarmOrco (Helicoverpa armigera, UniProt R4JUU3)
# T2 construct: gene OR14b; full-length Or14b, pCS2+ vector, cRNA co-injected with Orco in Xenopus laevis oocytes; with Odorant receptor coreceptor
# T2 sequence (R4JUU3 1-440): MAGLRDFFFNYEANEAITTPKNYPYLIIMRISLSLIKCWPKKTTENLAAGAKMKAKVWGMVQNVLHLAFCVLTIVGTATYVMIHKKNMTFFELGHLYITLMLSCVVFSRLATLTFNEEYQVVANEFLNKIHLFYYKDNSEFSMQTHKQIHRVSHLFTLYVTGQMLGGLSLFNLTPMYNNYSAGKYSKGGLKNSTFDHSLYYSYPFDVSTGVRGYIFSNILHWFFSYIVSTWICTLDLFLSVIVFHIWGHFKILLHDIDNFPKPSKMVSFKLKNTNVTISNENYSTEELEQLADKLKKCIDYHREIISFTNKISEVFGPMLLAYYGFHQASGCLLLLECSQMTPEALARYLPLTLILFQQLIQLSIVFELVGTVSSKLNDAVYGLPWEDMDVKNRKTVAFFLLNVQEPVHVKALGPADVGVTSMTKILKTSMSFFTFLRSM
# T2 sequence (A0A075TD45 1-473 partner): T1 sequence (A7UGE1 1-473 partner) with V55F
# HassOr6/HassOrco = biological target: T3, HassOr6/HassOrco (Helicoverpa assulta, UniProt R4JLZ7)
# T3 construct: gene OR6; full-length Or6, pCS2+ vector, cRNA co-injected with Orco in Xenopus laevis oocytes; with Odorant receptor coreceptor
# T3 sequence (R4JLZ7 1-425): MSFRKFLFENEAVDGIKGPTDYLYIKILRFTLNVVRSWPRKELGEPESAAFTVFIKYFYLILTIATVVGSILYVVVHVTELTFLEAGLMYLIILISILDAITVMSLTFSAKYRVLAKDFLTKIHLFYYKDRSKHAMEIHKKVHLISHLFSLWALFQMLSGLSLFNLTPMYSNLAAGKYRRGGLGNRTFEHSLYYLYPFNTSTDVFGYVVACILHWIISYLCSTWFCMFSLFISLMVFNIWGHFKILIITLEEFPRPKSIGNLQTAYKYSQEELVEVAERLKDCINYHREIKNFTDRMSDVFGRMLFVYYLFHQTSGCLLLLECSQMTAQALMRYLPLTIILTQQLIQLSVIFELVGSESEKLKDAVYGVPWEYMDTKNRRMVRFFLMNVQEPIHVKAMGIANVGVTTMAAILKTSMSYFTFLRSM
# T3 sequence (A7UGE1 1-473 partner): T1 sequence (A7UGE1 1-473 partner)
inward current at 10^-4 M (HassOr16/HassOrco),inward current at 10^-4 M (HassOr6/HassOrco),SMILES,inward current at 10^-4 M (HarmOr14b/HarmOrco)
HassOr16 is specific for Z9-14:Ald,,"CCCC/C=C\CCCCCCCC=O [Z9-14:Ald, (Z)−9-tetradecenal]",HarmOr14b is specifically tuned to Z9-14:Ald
,,"CCCCCC/C=C\CCCCCCCC=O [Z9-16:Ald, (Z)−9-hexadecenal]","HarmOr14b is specifically tuned to Z9-14:Ald, and also weakly responds to Z9-16:Ald"
,HassOr6 is mainly tuned to Z9-16:OH,"CCCCCC/C=C\CCCCCCCCO [Z9-16:OH, (Z)−9-hexadecenol]",
